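A five-concentration, 48-hour dose response in 96-well plates underlies each endpoint, interpolated linearly between surrounding concentrations. TGI: total growth inhibition.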
How the values were obtained:
Assay in all cases: NCI tumour cell line growth inhibition, 48 h
MDA-MB-231 breast = system: MDA-MB-231 breast
KM12 colon = system: KM12 colon
CAKI-1 renal = system: CAKI-1 renal
K-562 leukemia = system: K-562 leukemia
SF-268 CNS = system: SF-268 CNS
TK-10 renal = system: TK-10 renal
MDA-MB-435 = system: MDA-MB-435
MOLT-4 leukemia = system: MOLT-4 leukemia
EKVX NSCLC = system: EKVX NSCLC
SK-OV-3 ovarian = system: SK-OV-3 ovarian
SK-MEL-2 melanoma = system: SK-MEL-2 melanoma
MALME-3M melanoma = system: MALME-3M melanoma
ACHN renal = system: ACHN renal
A498 renal = system: A498 renal
MCF7 breast = system: MCF7 breast
U251 CNS = system: U251 CNS
HCT-15 colon = system: HCT-15 colon
BT-549 breast = system: BT-549 breast
HCC-2998 colon = system: HCC-2998 colon

SMILES	TGI (MDA-MB-231 breast)	TGI (KM12 colon)	TGI (CAKI-1 renal)	TGI (K-562 leukemia)	TGI (SF-268 CNS)	TGI (TK-10 renal)	TGI (MDA-MB-435)	TGI (MOLT-4 leukemia)	TGI (EKVX NSCLC)	TGI (SK-OV-3 ovarian)	TGI (SK-MEL-2 melanoma)	TGI (MALME-3M melanoma)	TGI (ACHN renal)	TGI (A498 renal)	TGI (MCF7 breast)	TGI (U251 CNS)	TGI (HCT-15 colon)	TGI (BT-549 breast)	TGI (HCC-2998 colon)
Cc1ccc(C)n1-n1c(Cc2ccc(Cl)cc2)n[nH]c1=O	> 100 µM	> 100 µM	> 100 µM	> 100 µM	> 100 µM	> 100 µM	> 100 µM	> 100 µM	> 100 µM	> 100 µM	> 100 µM	> 100 µM	> 100 µM	> 100 µM	> 100 µM	> 100 µM	> 100 µM	> 100 µM	
CC(=O)OC12c3ccccc3C(c3ccccc31)C1C(=O)N(Nc3ccccc3)C(=O)C12 (configuration not stated)	> 100 µM	> 100 µM	> 100 µM	> 100 µM	> 100 µM	> 100 µM		> 100 µM	> 100 µM	> 100 µM		> 100 µM	> 100 µM	> 100 µM	> 100 µM	> 100 µM	> 100 µM	> 100 µM	> 100 µM
CC(=O)OCc1cc(OC(C)=O)c2cc3c(OC(C)=O)cccc3c(OC(C)=O)c2c1	58.9 µM			> 100 µM	58.1 µM	33 µM	43.9 µM	> 100 µM	34.1 µM	41.1 µM		4.08 µM	34.2 µM	27.3 µM	38.9 µM	32 µM	31.1 µM	49.6 µM	31.6 µM
C/C(CC(O)(C(F)(F)Cl)C(F)(F)Cl)=N\Nc1ccccc1	> 100 µM	> 100 µM	67.2 µM	> 100 µM		95.3 µM	> 100 µM	84.2 µM	93.8 µM	> 100 µM	79.7 µM	> 100 µM	85.2 µM	> 100 µM	> 100 µM	89.4 µM	> 100 µM	> 100 µM	
Cc1ccc(S(=O)(=O)NN=C2C(C)CC(C(C)(C)C)CC2C)cc1 (configuration not stated)	85.9 µM	31.4 µM	31.6 µM	44.1 µM		65 µM	34.9 µM	43 µM		51.7 µM	32.9 µM	32.6 µM		31.4 µM	38.6 µM	31.5 µM	34.4 µM	35.5 µM	32.1 µM
Cc1cc(C)c2c(=O)cc(-c3ccccc3)[nH]c2c1	39.7 µM	22.1 µM	> 47.2 µM	> 100 µM	46.7 µM	22.8 µM	41.6 µM	> 100 µM	42.8 µM	15.7 µM	55.9 µM	> 80.4 µM	23.5 µM	10.5 µM	22.2 µM	18 µM	> 67.1 µM	54.2 µM	
O=c1cc(CN2CCCCC2)[nH]c2c1ccc1nc(CN3CCCCC3)cc(=O)n12	> 100 µM	> 100 µM	> 100 µM	> 100 µM	> 100 µM	> 100 µM	> 100 µM	> 100 µM	> 100 µM	> 100 µM	> 100 µM		> 100 µM	> 100 µM	> 100 µM	> 100 µM	> 100 µM	> 100 µM	> 100 µM
COc1cc(C)cc(C(=O)OCc2ccccc2)c1C1=C(Cl)C(=O)C(Cl)=CC1=O	> 10 µM	> 10 µM	> 10 µM	5.37 µM	> 10 µM	> 10 µM	> 10 µM	5.29 µM	> 10 µM	> 10 µM	> 10 µM	> 10 µM	> 10 µM		> 10 µM	> 10 µM	> 10 µM	> 10 µM	> 10 µM
CCOC(=O)C(=NN(C)c1ncccc1N)C(=O)OCC	83.3 µM	> 100 µM	> 100 µM	59.1 µM	> 100 µM	> 100 µM	44.5 µM	53.7 µM		> 100 µM	> 100 µM	59.7 µM		> 100 µM	39.7 µM	> 100 µM	> 100 µM	> 100 µM	
Cc1ccc([N+](=O)[O-])cc1S(=O)(=O)Nc1ccc(C(=O)/C=C/c2ccccc2)cc1	32.3 µM	32.2 µM	55.4 µM	29.7 µM	73.2 µM	> 100 µM	36.6 µM	23 µM	33.5 µM	95 µM	38.2 µM	39.5 µM	28 µM		26.8 µM		48.7 µM	33.7 µM	32.1 µM
CC1(C)CCCCC1/C=C/C(CC(O)(C(F)(F)F)C(F)(F)F)=N\Nc1ccc([N+](=O)[O-])cc1[N+](=O)[O-] (configuration not stated)	9.62 µM	9.75 µM		11.1 µM	3 µM	15.5 µM	7.9 µM	5.78 µM		14.8 µM	30 µM	48.3 µM	3.17 µM	6.96 µM	5.42 µM	10.7 µM	> 100 µM	1.99 µM	> 100 µM
CC(=O)OC12c3ccccc3C(c3ccccc31)C1C(=O)N(c3ccccc3O)C(=O)C12 (configuration not stated)	> 100 µM	> 100 µM	> 100 µM	> 100 µM	> 100 µM	> 100 µM		> 100 µM	> 100 µM	> 100 µM		> 100 µM	> 100 µM	> 100 µM	> 100 µM	> 100 µM	> 100 µM	> 100 µM	> 100 µM
NC(=S)Nc1c(S(N)(=O)=O)cc(S(N)(=O)=O)c(Cl)c1Cl	> 100 µM	> 100 µM	> 100 µM	> 100 µM	> 100 µM	> 100 µM	> 100 µM	> 100 µM	> 100 µM	> 100 µM	> 100 µM	> 100 µM			> 100 µM	> 100 µM	> 100 µM	> 100 µM	
O=c1[nH]ncc2[nH]c(-c3ccccc3)cc12	> 100 µM	> 100 µM	> 100 µM	> 100 µM	> 100 µM	> 100 µM	> 100 µM	> 100 µM	> 100 µM	> 100 µM	71 µM	> 100 µM	> 100 µM		> 100 µM	> 100 µM	> 100 µM	> 100 µM	> 100 µM
CC(=O)OCC(OC(C)=O)C(OC(C)=O)C(/C=N\Nc1nc2ccccc2c(=O)[nH]1)OC(C)=O (configuration not stated)	> 100 µM	> 100 µM	> 100 µM	> 100 µM	> 100 µM	> 100 µM	> 100 µM	> 100 µM	> 100 µM	> 100 µM	> 100 µM		> 100 µM	> 100 µM	> 100 µM	> 100 µM	> 100 µM	> 100 µM	
Cc1ccc(NC(=O)C23CC4CC(CC(C4)C2)C3)c(C(=O)NNC(=O)c2ccc(Cl)cc2)c1	50.3 µM	90.9 µM	73.8 µM	95 µM	> 100 µM	41.5 µM	37.4 µM	62.3 µM	68 µM	39 µM		59.4 µM	37.8 µM		59.7 µM	37.1 µM	35.7 µM	> 100 µM	30.2 µM
COc1ccc(/C=C2\N=C(N3CCOCC3)NC2=O)cc1	> 100 µM	> 100 µM	> 100 µM		> 100 µM	> 100 µM	> 100 µM	> 100 µM	> 100 µM	> 100 µM	> 100 µM	> 100 µM	> 100 µM		> 100 µM	> 100 µM	> 100 µM	> 100 µM	> 100 µM
O=C(O)[C@@]1(Cc2ccc(O)cc2)C[C@@H]2Cc3ccccc3N2N1	> 100 µM	> 100 µM	> 100 µM		> 100 µM	> 100 µM	> 100 µM	> 100 µM	> 100 µM	> 100 µM	> 100 µM	> 100 µM	> 100 µM	> 100 µM	> 100 µM	> 100 µM	> 100 µM	> 100 µM	
Nc1ccc(-c2nnc(-c3c(Cl)c(Cl)c(Cl)c(Cl)c3-c3nc4ccc(C(=O)c5ccccc5)cc4[nH]3)o2)cc1	55.4 µM	> 100 µM	> 100 µM	31.6 µM	> 100 µM	77.6 µM	75.8 µM	66.7 µM	87.7 µM	84.2 µM	88.3 µM	> 100 µM	> 100 µM	63.2 µM	76.2 µM	47.4 µM	61 µM	> 100 µM	
CCc1nc2c(n1CC)C(=O)c1ccccc1C2=O	49.4 µM	> 100 µM		> 100 µM	> 100 µM	93.1 µM	32.2 µM	> 100 µM	> 100 µM			34.3 µM	> 100 µM		> 100 µM	> 100 µM	> 100 µM	> 100 µM	> 100 µM
Cc1cc(N(C)C)ccc1N=Nc1ccc2ncccc2c1	> 100 µM	> 100 µM	> 100 µM	> 100 µM	> 100 µM	76.2 µM	> 100 µM	> 100 µM	> 100 µM	> 100 µM	> 100 µM	> 100 µM	> 100 µM		> 100 µM	> 100 µM	> 100 µM	> 100 µM	
Cc1nn(C(=O)c2ccc(Cl)cc2)c2c1C(c1ccccc1)SC(N)=N2 (configuration not stated)	> 10 µM	> 10 µM	> 10 µM	> 10 µM	> 10 µM	> 10 µM	> 10 µM	> 10 µM	> 10 µM	> 10 µM	> 10 µM	> 10 µM	> 10 µM		> 10 µM	> 10 µM	> 10 µM	> 10 µM	> 10 µM
CNc1cccc(-c2cc(=O)c3cc4c(cc3[nH]2)OCO4)c1	4.52 µM	> 24.7 µM	> 100 µM	> 19 µM	> 100 µM	77.5 µM		> 20.9 µM		1.07 µM	> 44.5 µM	> 100 µM	> 100 µM		> 100 µM	> 49.5 µM	3.66 µM	> 100 µM	1.38 µM
COc1cc(Br)cc2c1O[C@H]1C(=O)CC3CC21CCN3C (some centres not stated)		> 100 µM	> 100 µM	46.3 µM	> 100 µM		> 100 µM	61.6 µM	> 100 µM	> 100 µM	> 100 µM	> 100 µM	> 100 µM	> 100 µM	> 100 µM		> 100 µM	> 100 µM	> 100 µM
COc1cc(C2SC(N)=Nc3c2c(C)nn3C(=O)Cc2ccccc2)cc(OC)c1OC (configuration not stated)	> 100 µM	> 100 µM	> 100 µM	> 100 µM	> 100 µM	> 100 µM	> 100 µM	> 100 µM	> 100 µM	> 100 µM			> 100 µM	> 100 µM	> 100 µM		> 100 µM	> 100 µM	> 100 µM
CCC1CN2CCc3cc(OC)c(OC)cc3C2CC1CC1c2cc(OC)c(OC)cc2CCN1C(=O)C(Cc1c[nH]c2ccccc12)NC(=O)OC(C)(C)C (configuration not stated)	3.66 µM	11 µM	16.7 µM	> 33.9 µM	15.9 µM	16 µM	3.4 µM	8.07 µM	10 µM	9.48 µM	7.13 µM	3.22 µM	10.4 µM	17.8 µM		6.29 µM	7.35 µM	7.83 µM	5.24 µM
Clc1ccc(-c2cn3c(nc4ccccc43)c(/C=C/c3cccs3)n2)cc1	> 100 µM	> 100 µM		> 100 µM	> 100 µM	> 100 µM	> 100 µM			> 100 µM	> 100 µM	> 100 µM	> 100 µM	> 100 µM	> 100 µM	> 100 µM	> 100 µM	> 100 µM	> 100 µM

Reference: PubChem BioAssay (NCI)
